Assay results: patent US9670519B2, “Methods for reducing accumulation of lactate during culturing and method for producing polypeptide” (Biocon Limited, priority 2011, dated 2017)
Where two headings read alike, the source gives them in different places.

Experiments:
[1] = tested on: Chinese Hamster Ovary (CHO) cells genetically engineered to produce the Anti VEGF-A antibody; details: for Residual Lactate: fedbatch; for further reduction in the accumulation of lactate in presence of said salt (versus control) / reduction of the accumulation of lactate in the media with the added salt: over the run till 7th day
Procedure: (§1) In another embodiment of the present disclosure, the level of lactate in the medium is analyzed using the device YSI 7100 MBS Analyzer.
(§2) The level of lactate is analyzed for all the following experiments in the below examples by the use of the YSI 7100 MBS Analyzer. The pH for all the below experiments as recited in the following examples are maintained between pH 6.85-7.2. The level of Oxygen is also maintained by the oxygen levels are maintained by agitation in the shaker incubator. In all the below mentioned examples, the concentration of the added salt is the concentration of the salt as present in the medium. The temperature can be suitably varied, based on the nature of the cells used and other related parameters.
(§3) The cell culturing was performed in fedbatch mode. In the cell culture, the mammalian host cells used were Chinese Hamster Ovary (CHO) cells and HyClone CDM4NS0 culture medium was supplied initially. The CHO cells were genetically engineered to produce the Anti VEGF-A antibody. The copper sulphate pentahydrate salt was added in the medium at a concentration of 0.4 mM. In contrast, there was no addition of any copper salt in the control medium. The production fermentation run started with an initial cell count of 0.3-0.45×10^6 cells/ml at 37±1° C., the first 3-4 days were dedicated to grow the cells in batch phase. In the next step, the temperature is lowered to 31+/−1° C. and the run is continued till 7th day. […] The produced Anti VEGF-A antibody was then collected from the media using the technique of Affinity Chromatography.
as §3, with “fedbatch.” for “fedbatch mode.”, “zinc” for “copper”, “hepta hydrate” for “pentahydrate”
as §3, with “fedbatch mode is employed.” for “fedbatch mode.”, “VEGF-A Antibody.” for “VEGF-A antibody.”, “salt is also” for “salt was”, “of 0.2” for “of 0.4”, “to 31±1°” for “to 31+/−1°”, “VEGF-A Antibody” for “VEGF-A antibody”
The cell culturing was performed in fedbatch mode. In the cell culture, the mammalian host cell used were Chinese Hamster Ovary (CHO) cells and HyClone CDM4NS0 culture medium was supplied initially. The CHO cells were genetically engineered to produce the Anti VEGF-A Antibody. The zinc sulphate hepta hydrate salt is also added in the medium at a concentration of 0.2 mM. In contrast, there was no addition of any zinc salt in the control medium.

[2] = tested on: Chinese Hamster Ovary (CHO) cells genetically engineered to produce the Anti Her-2 antibody; details: for Residual Lactate: salt 0.4 mM in HyClone CDM4NS0 medium, fedbatch; for further reduction in the accumulation of lactate in presence of said salt (versus control) / reduction of the accumulation of lactate in the media with the added salt: salt 0.4 mM, over the run till 7th day
Procedure: as §1, §2
as §3, with “Her-2” for “VEGF-A”
as §3, with “Her-2” for “VEGF-A”, “zinc” for “copper”, “hepta hydrate” for “pentahydrate”

[3] = tested on: Chinese Hamster Ovary (CHO) cells genetically engineered to produce the Anti TNF antibody; details: for Residual Lactate: salt 0.4 mM in HyClone CDM4NS0 medium, fedbatch; for further reduction in the accumulation of lactate in presence of said salt (versus control) / reduction of the accumulation of lactate in the media with the added salt: salt 0.4 mM, over the run till 7th day
Procedure: as §1, §2
as §3, with “Anti TNF” for “Anti VEGF-A”, “salt is also” for “salt was”, “to 31±1°” for “to 31+/−1°”
(§4) The cell culturing was performed in a fedbatch mode. In the cell culture, the mammalian host cells used were Chinese Hamster Ovary (CHO) cells and HyClone CDM4NS0 culture medium was supplied initially. The CHO cells were genetically engineered to produce the Anti TNF antibody. The zinc sulphate hepta hydrate salt is also added in the medium at a concentration of 0.4 mM. In contrast, there was no addition of any zinc salt in the control medium. The production fermentation run started with an initial cell count of 0.3-0.45×10^6 cells/ml at 37±1° C., the first 3-4 days were dedicated to grow the cells in batch phase. In the next step, the temperature is lowered to 31±1° C. and the run is continued till 7th day. […] The produced Anti TNF antibody was then collected from the media using the technique of Affinity Chromatography.

[4] = tested on: Chinese Hamster Ovary (CHO) cells genetically engineered to produce the Anti CD6 Antibody; details: for Residual Lactate: salt 0.4 mM in HyClone CDM4NS0 medium, fedbatch
Procedure: as §1, §2
as §4, with “in” for “in a”, “cellculture,” for “cell culture,”, “CD6 Antibody.” for “TNF antibody.”, “is” for “is also”, “CD6 Antibody” for “TNF antibody”

[5] = salt 0.2 mM in HyClone CDM4NS0 medium, age 72 hours
[6] = salt 0.2 mM in HyClone CDM4NS0 medium, age 96 hours
[7] = salt 0.2 mM in HyClone CDM4NS0 medium, age 120 hours
[8] = salt 0.2 mM in HyClone CDM4NS0 medium, age 144 hours
[9] = salt 0.2 mM in HyClone CDM4NS0 medium, age 168 hours
[10] = salt 0.4 mM in HyClone CDM4NS0 medium, age 72 hours
[11] = salt 0.4 mM in HyClone CDM4NS0 medium, age 96 hours
[12] = salt 0.4 mM in HyClone CDM4NS0 medium, age 120 hours
[13] = salt 0.4 mM in HyClone CDM4NS0 medium, age 144 hours
[14] = salt 0.4 mM in HyClone CDM4NS0 medium, age 168 hours
[15] = salt 0.4 mM, over the run till 7th day

Structure (SMILES) | Residual Lactate [1, 5] [mM] | Residual Lactate [1, 6] [mM] | Residual Lactate [1, 7] [mM] | Residual Lactate [1, 8] [mM] | Residual Lactate [1, 9] [mM] | further reduction in the accumulation of lactate in presence of said salt (versus control) ([1]; salt 0.2 mM) | reduction of the accumulation of lactate in the media with the added salt ([1]; salt 0.2 mM) | Residual Lactate [1, 10] [mM] | Residual Lactate [1, 11] [mM] | Residual Lactate [1, 12] [mM] | Residual Lactate [1, 13] [mM] | Residual Lactate [1, 14] [mM] | further reduction in the accumulation of lactate in presence of said salt (versus control) ([1]; salt 0.4 mM) | reduction of the accumulation of lactate in the media with the added salt ([1]; salt 0.4 mM) | Residual Lactate ([2]; age 72 hours) [mM] | Residual Lactate ([2]; age 96 hours) [mM] | Residual Lactate ([2]; age 120 hours) [mM] | Residual Lactate ([2]; age 144 hours) [mM] | Residual Lactate ([2]; age 168 hours) [mM] | further reduction in the accumulation of lactate in presence of said salt (versus control) [2] | also measured
O.O.O.O.O.O=S(=O)([O-])[O-].[Cu+2] [Copper salt, copper sulphate pentahydrate] | 23.3 | 14.9 | 7.9 | 5.8 | 2.7 | about 6.17% | about 85.40% | 16 | 14.8 | 5.9 | 3.4 | 2 | about 26.5% | about 87.5% | 16 | 11.8 | 7.4 | 6.9 | 5.6 | about 14.5% | reduction of the accumulation of lactate in the media with the added salt [2]: about 65%; Residual Lactate ([3]; age 72 hours): 20.4 mM; Residual Lactate ([3]; age 96 hours): 20.3 mM; Residual Lactate ([3]; age 120 hours): 16.3 mM; Residual Lactate ([3]; age 144 hours): 13.2 mM; Residual Lactate ([3]; age 168 hours): 14.6 mM; further reduction in the accumulation of lactate in presence of said salt (versus control) [3]: about 13.05%; reduction of the accumulation of lactate in the media with the added salt [3]: about 28.43%
O.O.O.O.O.O.O.O=S(=O)([O-])[O-].[Zn+2] [Zinc salt, zinc sulphate hepta hydrate] | 23.3 | 16.3 | 10 | 5.9 | 3.4 | about 9.18% | about 88.41% | 16.6 | 14.7 | 7.6 | 6.2 | 4.5 | about 11.57% | about 72.89% | 16 | 11.8 | 7.4 | 6.9 | 5.6 | about 30.38% | reduction of the accumulation of lactate in the media with the added salt [2]: about 64.88%; Residual Lactate ([4]; age 72 hours): 18 mM; Residual Lactate ([4]; age 96 hours): 11.2 mM; Residual Lactate ([4]; age 120 hours): 6.2 mM; Residual Lactate ([4]; age 144 hours): 3 mM; Residual Lactate ([4]; age 168 hours): 3.2 mM; further reduction in the accumulation of lactate in presence of said salt (versus control) [4, 15]: about 11.67%; reduction of the accumulation of lactate in the media with the added salt [4, 15]: about 82.22%; Residual Lactate ([3]; age 96 hours): 19.6 mM; Residual Lactate ([3]; age 120 hours): 16.4 mM; Residual Lactate ([3]; age 144 hours): 13.8 mM; Residual Lactate ([3]; age 168 hours): 15 mM; further reduction in the accumulation of lactate in presence of said salt (versus control) [3]: about 6.09%; reduction of the accumulation of lactate in the media with the added salt [3]: about 23.46%
